In ChEMBL document CHEMBL5046280, “Discovery of Small-Molecule Inhibitors of the PD-1/PD-L1 Axis That Promote PD-L1 Internalization and Degradation” (J Med Chem, 2022):
Activity calls are given as the source filed them. No cut-off for these calls is given here.

Key:
[1] = molecular target: Programmed cell death protein 1/Programmed cell death 1 ligand 1 (Homo sapiens, UniProt Q9NZQ7); assay: Inhibition of PD-1/PD-L1 (unknown origin) interaction pre-incubated for 15 mins and measured after 90 mins by TR-FRET assay; format: protein-complex assay
[2] = test system: CT26; assay: Antitumor activity against mouse CT26 cells implanted in BALB/c mouse assessed as reduction in tumor weight at 160 mg/kg, po administered once daily for 2 weeks; format: functional; parameters: scale not given: the % may be the effect or the level left
[3] = test system: CT26; assay: Antitumor immunity activity against mouse CT26 cells implanted in BALB/c mouse assessed as upregulation of IFN-gamma mRNA at 160 mg/kg, po administered once daily for 2 weeks by qRT-PCR analysis; format: functional, organism-based
[4] = test system: B16-F10; assay: Antitumor activity against mouse B16-F10 cells implanted in […] mouse assessed as inhibition of tumor volume at 160 mg/kg, po administered once daily for 2 weeks; format: functional, organism-based
[5] = test system: CT26; assay: Antitumor activity against mouse CT26 cells implanted in BALB/c mouse assessed as downregulation of human PD-Ll expression in tumor tissue at 160 mg/kg per day, po administered once daily for 2 weeks by Western blotting analysis; format: functional, organism-based
[6] = test system: CT26; assay: Antitumor activity against mouse CT26 cells implanted in BALB/c mouse assessed as upregulation of human PD-L1 expression in tumor tissue at 40 mg/kg per day, po administered once daily for 2 weeks by Western blotting analysis; format: functional, organism-based
[7] = test system: CT26; assay: Antitumor activity against mouse CT26 cells implanted in BALB/c mouse assessed as inhibition of tumor cell growth in tumor tissue at 40 to 160 mg/kg, po administered once daily for 2 weeks by H and E staining based assay; format: functional, organism-based; conditions: dose 40-160 mg/kg
[8] = test system: B16-F10; assay: Antitumor immunity activity against mouse B16-F10 cells implanted in […] mouse assessed as increase level of IFN-gamma mRNA at 40 to 160 mg/kg, po administered once daily for 2 weeks in presence of PD-L1 antibody by […]; format: functional, organism-based; conditions: dose 40-160 mg/kg
[9] = test system: CT26; assay: Antitumor activity against mouse CT26 cells implanted in BALB/c mouse assessed as increase in infiltration of CD8+ T cells level in tumor tissue po administered once daily for 2 weeks by flow cytometry; format: functional, organism-based; conditions: dose 40-160 mg/kg
[10] = test system: B16-F10; assay: Antitumor activity against po dosed mouse B16-F10 cells implanted in […] mouse assessed as inhibition of tumor volume in presence of PD-L1 antibody administered once daily for 2 weeks; format: functional, organism-based; conditions: dose 40-160 mg/kg
[11] = test system: B16-F10; assay: Antitumor activity against mouse B16-F10 cells implanted in […] mouse assessed as decrease in human PD-Ll expression in tumor at 80 mg/kg, po administered once daily for 2 weeks in presence of PD-L1 antibody by Western blotting analysis; format: functional, organism-based
[12] = test system: CT26; assay: Antitumor activity against mouse CT26 cells implanted in BALB/c mouse assessed as reduction in tumor weight at 40 mg/kg, po administered once daily for 2 weeks; format: functional; parameters: scale not given: the % may be the effect or the level left
[13] = test system: CT26; assay: Antitumor immunity activity against mouse CT26 cells implanted in BALB/c mouse assessed as upregulation of CXCL10 mRNA at 160 mg/kg, po administered once daily for 2 weeks by qRT-PCR analysis; format: functional, organism-based
[14] = test system: B16-F10; assay: Antitumor activity against mouse B16-F10 cells implanted in […] mouse assessed as increase in infiltration of CD8+ T cells level in tumor tissue at 40 to 160 mg/kg,po administered once daily for 2 weeks in presence of PD-L1 antibody by flow cytometry; format: functional, organism-based; conditions: dose 40-160 mg/kg
[15] = test system: B16-F10; assay: Antitumor activity against mouse B16-F10 cells implanted in […] mouse assessed as inhibition of tumor volume at 80 mg/kg, po administered once daily for 2 weeks in presence of PD-L1 antibody; format: functional, organism-based
[16] = test system: CT26; assay: Antitumor immunity activity against mouse CT26 cells implanted in BALB/c mouse assessed as upregulation of CXCL9 mRNA at 160 mg/kg, po administered once daily for 2 weeks by qRT-PCR analysis; format: functional, organism-based
[17] = test system: CT26; assay: Antitumor activity against mouse CT26 cells implanted in BALB/c mouse assessed as reduction in tumor weight at 80 mg/kg, po administered once daily for 2 weeks; format: functional; parameters: scale not given: the % may be the effect or the level left
[18] = test system: B16-F10; assay: Antitumor activity against mouse B16-F10 cells implanted in […] mouse assessed as decrease in nucleus to cytoplasm interaction in tumor cells at 40 to 160 mg/kg, po administered once daily for 2 weeks in presence of PD-L1 antibody by H and E staining based assay; format: functional, organism-based; conditions: dose 40-160 mg/kg
[19] = test system: CT26; assay: Antitumor activity against mouse CT26 cells implanted in BALB/c mouse assessed as downregulation of human PD-L1 expression in tumor tissue at 80 mg/kg per day, po administered once daily for 2 weeks by Western blotting analysis; format: functional, organism-based
[20] = test system: CT26; assay: Antitumor activity against po dosed mouse CT26 cells implanted in BALB/c mouse assessed as tumor growth delay treated once daily for 2 weeks; format: functional, organism-based; conditions: dose 40-160 mg/kg
[21] = test system: MDA-MB-231; assay: Antitumor immunity against human MDA-MB-231 cells co-cultured with CD3/CD28/CD2 T cell activator stimulated human PMBC assessed as tumor cell viability measuring lactate dehydrogenase release measured for 14 hrs by PBMC killing assay relative to control; format: functional, cell-based
[22] = test system: B16-F10; assay: Antitumor activity against po dosed mouse B16-F10 cells implanted in […] mouse assessed as increase in infiltration of CD8+ T cells level in tumor tissue administered once daily for 2 weeks by flow cytometry; format: functional, organism-based; conditions: dose 40-160 mg/kg
[23] = molecular target: Programmed cell death 1 ligand 1 (Mus musculus, UniProt Q9EP73); assay: Binding affinity to mouse PD-L1 assessed as dissociation constant by micro-scale thermophoresis analysis
[24] = Toxicity in BALB/c mouse harbouring mouse CT26 cells assessed as change in body weight at 40 to 120 mg/kg, po administered once daily for 2 weeks; format: organism-based; conditions: in vivo, 336 h, dose 40-120 mg/kg
[25] = molecular target: Programmed cell death 1 ligand 1 (Homo sapiens, UniProt Q9NZQ7); assay: Binding affinity to human PD-L1 assessed as dissociation constant by micro-scale thermophoresis analysis
[26] = test system: B16-F10; assay: Antitumor activity against mouse B16-F10 cells implanted in […] mouse assessed as decrease in nucleus to cytoplasm interaction in tumor cells at 40 to 160 mg/kg,po administered once daily for 2 weeks by H and E staining based assay; format: functional, organism-based; conditions: dose 40-160 mg/kg
[27] = test system: B16-F10; assay: Antitumor immunity activity against mouse B16-F10 cells implanted in […] mouse assessed as increase level of IFN-gamma level in tumor tissue at 40 to 160 mg/kg, po administered once daily for 2 weeks by flow cytometry; format: functional, organism-based; conditions: dose 40-160 mg/kg
[28] = Toxicity in BALB/c mouse harbouring mouse CT26 cells assessed as mortality at 40 to 120 mg/kg, po administered once daily for 2 weeks; format: organism-based; conditions: in vivo, 336 h, dose 40-120 mg/kg

Chain of Programmed cell death protein 1/Programmed cell death 1 ligand 1 (Q15116 whole entry): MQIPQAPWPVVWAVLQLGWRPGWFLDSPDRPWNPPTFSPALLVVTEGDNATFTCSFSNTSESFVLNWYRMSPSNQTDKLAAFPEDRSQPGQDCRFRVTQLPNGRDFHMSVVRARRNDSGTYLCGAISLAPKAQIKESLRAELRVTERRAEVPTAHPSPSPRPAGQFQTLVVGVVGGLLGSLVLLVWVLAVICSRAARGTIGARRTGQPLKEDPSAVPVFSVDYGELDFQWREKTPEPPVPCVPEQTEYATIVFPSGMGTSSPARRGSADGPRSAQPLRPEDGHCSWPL
Chain of Programmed cell death protein 1/Programmed cell death 1 ligand 1 (Q9NZQ7 whole entry): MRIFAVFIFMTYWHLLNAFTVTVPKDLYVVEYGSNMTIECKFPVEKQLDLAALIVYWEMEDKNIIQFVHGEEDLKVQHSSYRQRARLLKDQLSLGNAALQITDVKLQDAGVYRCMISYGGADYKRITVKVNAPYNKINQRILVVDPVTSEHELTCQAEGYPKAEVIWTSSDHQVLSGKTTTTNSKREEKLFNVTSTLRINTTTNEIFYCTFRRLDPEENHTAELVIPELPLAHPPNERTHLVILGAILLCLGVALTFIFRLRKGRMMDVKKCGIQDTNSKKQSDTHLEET
Chain of Programmed cell death 1 ligand 1 (Mus musculus, UniProt Q9EP73) (Q9EP73 whole entry): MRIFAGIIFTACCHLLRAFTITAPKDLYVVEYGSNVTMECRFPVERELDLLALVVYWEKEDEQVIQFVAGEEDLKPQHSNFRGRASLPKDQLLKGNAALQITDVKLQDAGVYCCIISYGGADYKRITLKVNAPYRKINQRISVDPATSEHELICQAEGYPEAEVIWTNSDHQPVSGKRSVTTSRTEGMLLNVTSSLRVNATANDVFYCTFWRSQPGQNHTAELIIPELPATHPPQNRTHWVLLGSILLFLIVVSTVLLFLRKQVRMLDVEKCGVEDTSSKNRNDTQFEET
Chain of Programmed cell death 1 ligand 1 (Homo sapiens, UniProt Q9NZQ7) (Q9NZQ7 whole entry): as the sequence (Q9NZQ7 whole entry) above

In the case of `Cc1c(-c2ccccc2)cccc1-c1nnc(Nc2ccc(CNCC(=O)O)cc2)o1`, the IC50 [1] is reported as 516 µM.
`CC(=O)NCCNCc1ccc(Nc2nnc(-c3cccc(-c4ccccc4)c3C)o2)cc1` gave an IC50 [1] of 1800 µM.
In the case of `COc1ccc(Nc2nnc(-c3cccc(-c4ccccc4)c3C)o2)cc1`, the IC50 [1] is reported as 2.64 µM.
In the case of `COc1ccc(Nc2nnc(-c3ccc(-c4ccccc4)c(C)c3)o2)cc1`, the IC50 [1] is reported as over 100 µM.
`CC(=O)NCCNCc1cccc(Nc2nnc(-c3cccc(-c4ccccc4)c3C)o2)c1` gave an IC50 [1] of 34.1 µM.
Work on `COc1ccc(Nc2nnc(-c3ccc([N+](=O)[O-])cc3)o2)cc1` yielded an IC50 [1] of 64.1 µM.
With `Cc1c(-c2ccccc2)cccc1-c1nnc(Nc2cccc(CNCCCO)c2)o1` the IC50 [1] was 55.9 µM.
`Cc1c(-c2ccccc2)cccc1-c1nnc(Nc2cccc(CN3CCOCC3)c2)o1` gave an IC50 [1] of 64.1 µM.
In the case of `Cc1c(-c2ccccc2)cccc1-c1nnc(Nc2ccc(CNCCO)cc2)o1`, the IC50 [1] is reported as 744 µM.
`Cc1c(-c2ccccc2)cccc1-c1nnc(Nc2cccc(CN[C@H](C)CO)c2)o1` showed an IC50 [1] of 70 µM.
For `Cc1c(-c2ccccc2)cccc1-c1nnc(Nc2cccc(CN3CC[C@@H](O)C3)c2)o1`, the IC50 [1] was 46.4 µM.
`Cc1c(-c2ccccc2)cccc1-c1nnc(Nc2cccc(CN(C)CCO)c2)o1` gave an IC50 [1] of 67.1 µM.
`Cc1c(-c2ccccc2)cccc1-c1nnc(Nc2cccc(CNCCN)c2)o1` gave an IC50 [1] of 152 µM.
With `Cc1c(-c2ccccc2)cccc1-c1nnc(Nc2cccc(CNCCO)c2)o1` the Activity [2] was 75%, the Activity [3] was “Active” and the Activity [4] was “Active”. The Activity [5] was “Active”, the Activity [6] was “inactive” and the Activity [7] was “Dose-Dependent Effect”. The Activity [8] was “Active”, the Activity [9] was “Dose-Dependent Effect” and the Activity [10] was “Dose-Dependent Effect”. For the same compound, the Activity [11] was “Active”, the Activity [12] was 45% and the Activity [13] was “Active”. The Activity [14] was “Dose-Dependent Effect”, the Activity [15] was “Active” and the Activity [16] was “Active”. The IC50 [1] was 27.8 µM, the Activity [17] was 55% and the Activity [18] was “Active”. The Activity [19] was “Active”, the Activity [20] was “Dose-Dependent Effect” and the Activity [21] was “Active”. For the same compound, the Activity [22] was “Dose-Dependent Effect”, the Kd [23] was 0.48 µM and the Activity [24] was “Non-Toxic”. The Kd [25] was 0.025 µM, the Activity [26] was “Active” and the Activity [27] was “Active”. The Activity [28] was “Non-Toxic”.
In the case of `Cc1c(-c2ccccc2)cccc1-c1nnc(Nc2cccc(CNCC(=O)O)c2)o1`, the IC50 [1] is reported as 24.5 µM.
